Experimental data as given in patent publication US7705049B2, “Methods for treating non-melanoma cancers with PABA” (New York University, priority 2004, dated 2010).

Columns and labels:
[1] = tested on: MCF7 breast carcinoma cells; experiment: MTT proliferation assay, MCF7 cells; format: cell-based; settings: Homo sapiens, PABA 0.1 mg/ml 3 days, 5-FU 1 μM, ^90Y-huBrE-3 1 μCi, MTT after 72 hours
Description: Pharmaceutical grade ^90Y was buffered in 0.05M acetate and incubated with MX-DTPA-huBrE-3 and 5 mM EDTA for 1 hr, followed by purification on a Bio-Gel P6 column eluted with 1% human serum albumin to generate radiolabeled ^90Y-huBrE-3 antibody. MCF7 breast carcinoma cells were incubated with and without PABA (0.1 mg/ml) in DMEM media for 3 days, and then exposed to 5-fluorouracil (5-FU) in concentrations of 0, 0.05, 0.1, 1.0 and 5.0 μM, and concentrations of ^90Y-huBrE-3 in concentrations of 0, 1.0, 2.0, and 4 μCi. Effects on proliferation were monitored after 72 hours using a commercially available MTT assay.

melanogenesis = settings: in vitro and in vivo, alone or in combination with chemotherapy or radiation therapy; cited from earlier work
[2] = tested on: cell cycle control genes in B16F10 and G361 melanoma cells; experiment: AFFYMATRIX cDNA array analysis of tumor cells; format: cell-based, human and mouse; settings: PABA 100 μg/ml
Description: (§1) An AFFYMATRIX™ based cDNA array analysis was performed on tumor cells cultured in the presence or absence of PABA (100 μg/ml). A number of genes within the tumor cells were differentially expressed following PABA treatment. Experiments were conducted on genes that were consistently altered in both human and mouse tumor cells. […] To confirm these findings, the expression of CDC25A was analyzed. 4T1 breast carcinoma cells and B16F10 melanoma cells were incubated in the presence or absence of PABA. After 7 days, the RNA was isolated. The relative levels of CDC25A mRNA were examined by RT-PCR or real time PCR. FIG. 8.

[3] = cited from earlier work
[4] = tested on: Lewis Lung carcinoma cells; experiment: Chick embryo CAM tumor growth, Lewis Lung carcinoma; format: in vivo, chick embryos; settings: PABA 100 ug/ml, TAXOL 0.01 μM, 7 days
Description: Lewis Lung carcinoma cells and murine 4T1 breast carcinoma cells (available from American Type Culture Collection, Rockville, MD-No. CRL-2539), were cultured in growth medium in the presence or absence of PABA (100 ug/ml) for at least 7 days. The cells were harvested, washed and resuspended in sterile PBS, followed by implantation on the chorioallantoic membranes (CAM) of 10-day old chick embryos. Embryos were allowed to incubate for 24 hours. The embryos were then treated with either a single fraction dose of ionizing radiation (5.0 Gy) or TAXOL® (0.01 μM) and allowed to incubate for 7 days.

c-Myc = experiment: Western blot, c-Myc; format: cell-based
Description: (§2) Western blot analysis was performed to confirm the altered expression of CDC25A, c-Myc and BRCA-2 at the protein level. G361 melanoma cells were cultured for 2 weeks in the presence or absence of PABA. The cells were harvested and lysed in 1.0% Triton-X-100 lysis buffer. Equal amounts of total cell lysates (50 μg/lane) were separated by 10% SDS PAGE and the proteins were transferred to nitrocellulose membranes. The membranes were probed with monoclonal antibodies P4C10 (anti-β1 integrin), 3303 (anti-BRCA-2) and Ab-3 (anti-CDC25A) or secondary antibody only. […] BRCA-2 expression was decreased in cells treated with PABA compared to cells grown in the absence of PABA. […] In similar studies, c-Myc expression in 4T1 breast carcinoma cells and G361 melanoma cells was examined by Western blot. The nitrocellulose membranes were probed with anti-c-Myc monoclonal antibody 9402 (available from Cell Signaling Technology, Beverly, Mass.) and anti-actin monoclonal antibody. […] No change in actin levels was observed.

P21^CIP1 = experiment: Western blot, P21^CIP1; format: cell-based; settings: 4T1 breast cancer cells; PABA 100 μg/ml 7 days
Description: P21^CIP1 is a cell cycle dependent kinase inhibitor, which has a role in regulating the sensitivity of breast cancer cells to chemotherapeutic agents such as TAXOL®. 4T1 breast cancer cells were incubated in the presence or absence of PABA (100 μg/ml) for 7 days. The cells were washed and cell lysates were prepared. Levels of P21^CIP1 were analyzed by Western blot. Equal amounts (50 μg/lane) were separated by SDS PAGE and transferred to nitrocellulose membranes. The membranes were probed with anti-P21^CIP1 or anti-actin monoclonal antibodies.

[5] = tested on: 4T1 breast carcinoma cells; experiment: Subcutaneous 4T1 breast tumor growth and lung metastasis in mice; format: in vivo
Description: Sub-confluent cultures of 4T1 breast carcinoma cells were harvested, washed and resuspended in PBS. Female nude mice or Balb/c strain mice were injected subcutaneously with approximately 1×10^6 tumor cells. Subcutaneous tumors were allowed to grow for 7 days, at which time the mice were treated daily by intraperitoneal injections of the following: • PABA alone (500 μg/mouse) • Radiation alone (9.0 Gy) • PABA and radiation • Docetaxel (8.0 mg/kg 1 time/week, intraperitoneal administration) • PABA and docetaxel (daily PABA and intraperitoneal administration of 8.0 mg/kg docetaxel 1 time/week) Untreated mice were used as a control. Tumor growth was gauged by weekly caliper measurements. After 28 days, the mice were sacrificed and tumor volumes were calculated by standard methods using the formula […], where V=volume, L=length and W=width.

4T1 breast cancer cells = experiment: Cell cycle analysis by flow cytometry, 4T1; format: cell-based; settings: PABA 100 μg/ml 2 weeks, untreated 10%
Description: (§3) G361 melanoma cells and 4T1 breast cancer cells were cultured in the presence or absence of PABA (100 μg/ml) for 2 weeks. The tumor cells were synchronized by serum starvation and cultured for 2 hours in 10% serum-containing medium. The cells were harvested, washed, fixed and stained with propidium iodide. Cell cycle analysis was performed by flow cytometry. The relative levels of untreated G361 cells (12%) and 4T1 cells (10%) in S-phase were low compared. FIG. 9. In contrast, 72% of PABA-treated G361 cells and 40% of PABA-treated 4T1 cells were in S-phase.

[6] = tested on: Lewis Lung carcinoma cells; settings: cited from earlier work
[7] = tested on: murine 4T1 breast carcinoma cells; experiment: Chick embryo CAM tumor growth, 4T1 breast carcinoma; format: in vivo, chick embryos; settings: 4T1 on CAM; PABA 100 ug/ml; 7 days
Description: Lewis Lung carcinoma cells and murine 4T1 breast carcinoma cells (available from American Type Culture Collection, Rockville, MD-No. CRL-2539), were cultured in growth medium in the presence or absence of PABA (100 ug/ml) for at least 7 days. The cells were harvested, washed and resuspended in sterile PBS, followed by implantation on the chorioallantoic membranes (CAM) of 10-day old chick embryos. Embryos were allowed to incubate for 24 hours. The embryos were then treated with either a single fraction dose of ionizing radiation (5.0 Gy) or TAXOL® (0.01 μM) and allowed to incubate for 7 days. Tumor growth was assessed by measuring the wet weights of resected tumors (5-10 tumors per condition).

β1 integrin subunit = experiment: Western blot, β1 integrin; format: cell-based; settings: G361 melanoma cells; 2 weeks with PABA
Description: as §2

BRCA-2 = experiment: Western blot, BRCA-2; format: cell-based; settings: G361 melanoma cells; 2 weeks with PABA
Description: as §2

CDC25A mRNA = CDC25A mRNA by RT-PCR; format: cell-based; settings: 7 days
Description: as §1

CDC25A = experiment: Western blot, CDC25A; format: cell-based; settings: G361 melanoma cells; 2 weeks with PABA
Description: as §2

G361 melanoma cells = experiment: Cell cycle analysis by flow cytometry, G361; format: cell-based; settings: PABA 100 μg/ml 2 weeks, untreated 12%
Description: as §3

actin = experiment: Western blot, actin; format: cell-based
Description: as §2
P21^CIP1 is a cell cycle dependent kinase inhibitor, which has a role in regulating the sensitivity of breast cancer cells to chemotherapeutic agents such as TAXOL®. 4T1 breast cancer cells were incubated in the presence or absence of PABA (100 μg/ml) for 7 days. The cells were washed and cell lysates were prepared. Levels of P21^CIP1 were analyzed by Western blot. […]

[8] = tested on: H460 non-small cell lung cancer cells; experiment: Reactive oxygen species by FACS; format: cell-based; settings: PABA 100 μg/ml
Description: H460 non-small cell lung cancer cells were grown in the presence or absence of PABA (100 μg/ml) in RPMI-1640 media containing 10% fetal calves serum, 1% penn/strep and 1% NaPyruvate. After 24 hours, a portion of the cells were exposed to 0.01 bortezomib (10 nM) for an additional 24 hours. […] The cells were monitored for ROS by the addition of dihydrothidine at a concentration of 5 μM for 15 minutes followed by fixation in ethanol and analysis by FACS. […] FIG. 10. Cells treated with PABA and bortezomib had about a 2 fold increase in ROS compared to cells treated with bortezomib alone.

MCF-7 xenograft = settings: subtherapeutic doses; cited from earlier work
[9] = tested on: reactive oxygen species (ROS); settings: 100 nM, 24 hours exposure; cited from earlier work
[10] = tested on: hormone receptor-positive tumors; settings: 3-year; cited from earlier work
[11] = tested on: stage II or stage III breast cancer; settings: cited from earlier work
[12] = tested on: SKOV-3 ovarian carcinoma cells; experiment: MTT proliferation assay, SKOV-3 cells; format: cell-based; settings: topotecan 0.1 uM alone, compared to untreated controls
Description: Similarly, SKOV-3 ovarian carcinoma cells were incubated with or without PABA at 0.1 mg/ml in DMEM for 3 days and subsequently exposed to topotecan at concentrations of 0, 0.1, 0.5 and 2.0 μM, and ^90Y-huBrE-3 at concentrations of 0, 1.0, 2.0, and 4.0 μCi, and evaluated using an MTT assay after 72 hrs.

## O=c1[nH]cc(F)c(=O)[nH]1 [5-FU, 5-fluorouracil]
[1]
  inhibition at 1 µM: ~25%

## Nc1ccc(C(=O)O)cc1 [PABA, p-amino-benzoic acid]
melanogenesis
  melanogenesis: inhibits melanogenesis
[2]
  BRCA-2 gene expression: down-regulated
  H2A histone gene expression: down-regulated
  H2B histone gene expression: down-regulated
  P21^CIP1 gene expression: down-regulated
[3]; after ingestion
  time of peak plasma concentration after ingestion: about ¾
[3]; in vivo
  mean half life: about 0.5 hours
[4]
  effect on growth of Lewis Lung tumors: neither PABA nor TAXOL® alone inhibited the growth
c-Myc; 4T1 cells
  c-Myc protein expression: significant up-regulation
c-Myc; G361 cells
  c-Myc protein expression: significant up-regulation
P21^CIP1
  levels of P21^CIP1: significantly reduced
[5]; PABA 500 μg/mouse daily i.p., radiation 9.0 Gy, 28 days (FIG. 4)
  reduction of mean tumor volume compared to untreated control mice: about 26%
4T1 breast cancer cells
  cells in S-phase: 40%
[6]
  in vitro proliferation of Lewis Lung carcinoma cells: inhibit the in vitro proliferation
[7]
  effect on 4T1 breast carcinoma tumor growth: Neither PABA alone nor a single fraction dose of ionizing radiation had any effect
β1 integrin subunit
  β1 integrin subunit expression: no change
BRCA-2
  BRCA-2 protein expression: decreased
CDC25A mRNA; 4T1 breast carcinoma cells
  increase in levels of CDC25A mRNA compared to untreated controls: about 2 fold
CDC25A mRNA; B16F10 melanoma cells
  increase in levels of CDC25A mRNA compared to untreated controls: about 2 fold
CDC25A
  CDC25A protein expression: markedly increased
G361 melanoma cells
  cells in S-phase: 72%
actin; 4T1 and G361 cells, c-Myc blots
  actin levels: No change
actin; 4T1 breast cancer cells, PABA 100 μg/ml 7 days
  level of actin: Little change
[8]
  increase in ROS compared to untreated cells: 3 fold

## CC(=O)O[C@H]1C(=O)[C@@]2(C)[C@H]([C@H](OC(=O)c3ccccc3)[C@]3(O)C[C@H](OC(=O)[C@H](O)[C@@H](NC(=O)c4ccccc4)c4ccccc4)C(C)=C1C3(C)C)[C@]1(OC(C)=O)CO[C@@H]1C[C@@H]2O [TAXOL®, paclitaxel, reference compound]
[4]
  effect on growth of Lewis Lung tumors: neither PABA nor TAXOL® alone inhibited the growth
MCF-7 xenograft
  responses with either treatment modality alone: no responses

## CC(C)C[C@H](NC(=O)[C@H](Cc1ccccc1)NC(=O)c1cnccn1)B(O)O [bortezomib]
[9]
  induction of reactive oxygen species (ROS): actively induce reactive oxygen species (ROS)

## CC(=O)O[C@@]12CO[C@@H]1C[C@H](O)[C@@]1(C)C(=O)[C@H](O)C3=C(C)[C@@H](OC(=O)[C@H](O)[C@@H](NC(=O)OC(C)(C)C)c4ccccc4)C[C@@](O)([C@@H](OC(=O)c4ccccc4)[C@H]21)C3(C)C [docetaxel, reference compound]
[5]; docetaxel 8.0 mg/kg 1 time/week i.p., PABA 500 μg/mouse daily, 28 days (FIG. 3)
  reduction of tumor growth: ~45%

## CC/C(=C(\c1ccccc1)c1ccc(OCCN(C)C)cc1)c1ccccc1 [tamoxifen]
[10]
  disease-free survival: 67%
  overall survival: 85%
[11]; at 10 years
  overall survival: 36%
[11]; median follow-up of 10 years, tamoxifen 30 mg daily for 1 year
  local-regional recurrence: 35%

## CC[C@@]1(O)C(=O)OCc2c1cc1n(c2=O)Cc2cc3c(CN(C)C)c(O)ccc3nc2-1 [topotecan]
[12]
  inhibition of proliferation: minimally
